Measurements: article PMC6315728, “Fatty Acid and Related Potassium Kv2 Channel Blockers: Toxicity and Physiological Actions on Mosquitoes” (Insects, 2018)
Like-named read-outs stand apart in the source and are kept apart here.

Biological target: T1, AgKv2.1 (voltage-gated potassium channel Kv2.1) (Anopheles gambiae, UniProt Q5TT67)
T1 construct: gene 1274312
T1 sequence (Q5TT67 1-1014): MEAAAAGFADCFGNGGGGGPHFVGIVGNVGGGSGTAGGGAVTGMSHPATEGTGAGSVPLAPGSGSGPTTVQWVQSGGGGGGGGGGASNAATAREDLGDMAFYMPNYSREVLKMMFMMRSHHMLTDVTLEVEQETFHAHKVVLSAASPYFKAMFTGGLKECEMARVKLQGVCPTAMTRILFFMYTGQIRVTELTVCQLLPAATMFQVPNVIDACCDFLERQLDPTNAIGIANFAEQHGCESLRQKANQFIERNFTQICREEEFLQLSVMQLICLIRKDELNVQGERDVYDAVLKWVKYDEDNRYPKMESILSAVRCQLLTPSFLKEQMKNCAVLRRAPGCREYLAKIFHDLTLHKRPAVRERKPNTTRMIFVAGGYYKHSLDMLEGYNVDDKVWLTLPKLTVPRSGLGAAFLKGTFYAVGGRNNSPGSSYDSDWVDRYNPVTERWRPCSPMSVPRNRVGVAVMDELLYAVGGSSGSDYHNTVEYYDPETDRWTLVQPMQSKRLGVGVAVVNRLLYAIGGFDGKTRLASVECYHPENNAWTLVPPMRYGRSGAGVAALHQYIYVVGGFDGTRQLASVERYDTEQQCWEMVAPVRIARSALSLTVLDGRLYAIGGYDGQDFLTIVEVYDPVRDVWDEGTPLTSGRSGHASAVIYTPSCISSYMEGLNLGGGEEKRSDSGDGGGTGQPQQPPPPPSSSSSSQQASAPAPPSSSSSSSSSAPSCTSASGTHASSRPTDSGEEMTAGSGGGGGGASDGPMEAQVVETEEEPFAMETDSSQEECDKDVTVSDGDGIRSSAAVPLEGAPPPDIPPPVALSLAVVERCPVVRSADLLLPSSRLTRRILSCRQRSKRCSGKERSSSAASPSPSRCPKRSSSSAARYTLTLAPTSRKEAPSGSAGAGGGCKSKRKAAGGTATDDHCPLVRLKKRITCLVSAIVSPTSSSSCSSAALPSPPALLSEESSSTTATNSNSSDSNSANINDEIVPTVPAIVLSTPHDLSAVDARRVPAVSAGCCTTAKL
Test: whole-cell patch-clamp of HEK-293 cells expressing AgKv2.[…], current inhibition at +[…] mV
Format: cell-based

IC50 (read-out: Patch Clamp / IC50 /) [µM] | Compound | IC50 [µM]
– | CCCCCCCCCC(=O)O [decanoic acid] | 0.61
30 | CCCCCC(O)CCCC(=O)O (stereo not drawn) [5-HDC] | –
1.18 | CN(C)c1cccc2c(S(=O)(=O)NCCCCCCCCCCC(=O)O)cccc12 [DAUDA] | –
